Inhibition and IC50 data for 41 molecules are collected here from US9745299B2, “Substituted tricyclic benzimidazoles as kinase inhibitors” (SELVITA SA, priority 2012, dated 2017).

The target in one assay is T1, CDK8/CyclinC (Homo sapiens, UniProt P49336).
T1 construct: purchased ProQinase, Freiburg, Germany
In words: ADP-Glo Kinase Assay, CDK8/CyclinC. Also: ATP at apparent Km (53 µM). Format: biochemical. The conditions noted are these: read-out: % inhibition at 1 μM CDK8/CyclinC. On the procedure:
(§1) Testing of the compounds described in this invention was carried out using the ADP-Glo™ Kinase Assay from Promega Corporation (Madison, Wis., USA).
(§2) The ADP-Glo™ Kinase Assay is a luminescent ADP detection assay to measure kinase activity by quantifying the amount of ADP produced during a kinase reaction. The kinase assay is performed in kinase assay buffer (5 mM MOPS, pH 7.5, 5 mM MgCl2, 0.4 mM EDTA, 1.5 mM DTT). Test samples initially dissolved in DMSO at 10 mM were diluted with the assay buffer to 1000 nM. A 30 μL volume/well of a mixture of substrates containing ATP (final ATP concentration in each kinase assay was equal to its apparent ATP Km).
(§3) The assay was performed in two steps: first, after the kinase reaction, an equal volume of ADP-Glo™ Reagent was added to terminate the kinase reaction and deplete the remaining ATP. Second, the Kinase Detection Reagent was added to simultaneously convert ADP to ATP and allowed the newly synthesized ATP to be measured using a luciferase/luciferin reaction. The luminescent signal generated was proportional to the ADP concentration produced and was correlated with kinase activity.

In another assay the target is T2, CDK9/CyclinT (Homo sapiens, UniProt P50750).
T2 construct: purchased Proqinase, Freiburg, Germany
T2 sequence (P50750 whole entry): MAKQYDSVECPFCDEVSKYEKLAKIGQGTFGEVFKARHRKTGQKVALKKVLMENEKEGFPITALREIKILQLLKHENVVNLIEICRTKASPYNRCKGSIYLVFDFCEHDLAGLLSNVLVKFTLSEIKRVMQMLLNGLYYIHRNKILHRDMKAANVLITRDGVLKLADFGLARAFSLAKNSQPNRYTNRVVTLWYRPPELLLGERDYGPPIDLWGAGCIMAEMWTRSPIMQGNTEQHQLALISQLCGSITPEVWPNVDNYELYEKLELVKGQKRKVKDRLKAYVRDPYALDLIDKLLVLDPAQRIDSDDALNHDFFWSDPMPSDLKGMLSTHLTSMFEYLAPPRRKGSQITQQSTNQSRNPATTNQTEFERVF
T2 sequence (O60563 whole entry partner): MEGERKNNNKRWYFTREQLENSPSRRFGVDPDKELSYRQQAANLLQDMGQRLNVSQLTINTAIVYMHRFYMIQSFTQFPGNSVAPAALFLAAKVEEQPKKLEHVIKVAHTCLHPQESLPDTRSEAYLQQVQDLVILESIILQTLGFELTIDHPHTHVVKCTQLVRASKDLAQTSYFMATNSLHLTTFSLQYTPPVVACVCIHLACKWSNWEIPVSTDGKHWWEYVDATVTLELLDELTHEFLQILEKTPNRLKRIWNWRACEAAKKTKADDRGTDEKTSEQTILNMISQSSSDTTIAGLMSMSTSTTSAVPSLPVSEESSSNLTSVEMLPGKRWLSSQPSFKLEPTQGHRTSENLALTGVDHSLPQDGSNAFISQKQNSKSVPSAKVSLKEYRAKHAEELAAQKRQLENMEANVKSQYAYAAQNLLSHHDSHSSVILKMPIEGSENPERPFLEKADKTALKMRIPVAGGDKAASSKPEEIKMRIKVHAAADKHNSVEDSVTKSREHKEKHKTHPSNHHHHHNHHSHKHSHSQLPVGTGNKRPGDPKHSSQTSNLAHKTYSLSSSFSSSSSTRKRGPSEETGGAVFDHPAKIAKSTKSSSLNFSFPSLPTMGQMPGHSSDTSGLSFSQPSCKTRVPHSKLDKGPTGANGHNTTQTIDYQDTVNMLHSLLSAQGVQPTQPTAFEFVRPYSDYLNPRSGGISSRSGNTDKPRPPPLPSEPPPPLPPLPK
In words: ADP-Glo Kinase Assay, CDK9/CyclinT. Also: ATP at apparent Km (26 µM). Format: biochemical. The conditions noted are these: read-out: % inhibition at 1 μM CDK9/CyclinT. The protocol: as §1, §2, §3
In general terms: ADP-Glo turns the ADP formed in a reaction into a luminescent signal.

The next assay addresses T3, CDK2/CyclinE (Homo sapiens, UniProt P24941).
T3 construct: purchased Millipore, Billerica, Mass., USA
The assay can be described thus: ADP-Glo Kinase Assay, CDK2/CyclinE. The format is biochemical. The conditions noted are these: read-out: % inhibition at 1 μM CDK2/CyclinE. The protocol:
as §1, §2, §3

Another assay has as its system HCT116 cells. The assay can be described thus: MTS viability assay, HCT116. The format is cell-based. To be noted: Homo sapiens, HCT-116, HCT116, 72 hour incubation, read-out: IC50 [μM] HCT116 ED50. The source says:
(§4) The viability of CDK8 expressing cells can be evaluated using a tetrazolium salt reduction cell-based assay. In viable cells this colorimetric assay can measure mitochondrial reduction of a tetrazolium component (MTS) into an […] formazan product. For MTS viability assay, human colon cancer cell lines were used (SW480 and HCT116 cell lines), containing elevated levels of CDK8 protein and highly dependent on its expression for proliferation [see, Firenstein et al. Nature 455 (25):547-551, (2008)]. These cell lines were used to determine the activity of the compounds provided herein to inhibit CDK8 in intact cells. Human tumor cell lines were obtained from ATCC (Rockville Md. USA). In each case, and by methods known to those practiced in the art of cell culture, vaiability was measured after 72 hour incubation with the compounds provided herein using a standard MTS protocol (CellTiter 96® AQueous Non-Radioactive Cell Proliferation Assay).
(§5) Briefly, cells were plated at 10,000-20,000 cells per well in DMEM medium supplemented with 10% fetal bovine serum. The compound plate was set up by aliquoting into column 1 of a 96-well plate, the negative control (DMSO), aliquoting into column 12 the positive control, and titrating the test compound in serial dilutions into columns 2-11. An aliquot from each well of the compound plate was transferred to the plated cells and then incubated at 37° C. in 5% CO2. 20 μL of MTS tetrazolium was added to each well of optical plate and the cells were incubated at 37° C. in 5% CO2 for 2 hours. The absorbance was measured at 490 nm using a microplate reader.

The test system of a further assay is SW480 cells. In words: MTS viability assay, SW480. To be noted: Homo sapiens, SW480, 72 hour incubation, read-out: IC50 [μM] SW-480 ED50. The format is cell-based.
Description: as §4, §5

T1 sequence (P49336 whole entry): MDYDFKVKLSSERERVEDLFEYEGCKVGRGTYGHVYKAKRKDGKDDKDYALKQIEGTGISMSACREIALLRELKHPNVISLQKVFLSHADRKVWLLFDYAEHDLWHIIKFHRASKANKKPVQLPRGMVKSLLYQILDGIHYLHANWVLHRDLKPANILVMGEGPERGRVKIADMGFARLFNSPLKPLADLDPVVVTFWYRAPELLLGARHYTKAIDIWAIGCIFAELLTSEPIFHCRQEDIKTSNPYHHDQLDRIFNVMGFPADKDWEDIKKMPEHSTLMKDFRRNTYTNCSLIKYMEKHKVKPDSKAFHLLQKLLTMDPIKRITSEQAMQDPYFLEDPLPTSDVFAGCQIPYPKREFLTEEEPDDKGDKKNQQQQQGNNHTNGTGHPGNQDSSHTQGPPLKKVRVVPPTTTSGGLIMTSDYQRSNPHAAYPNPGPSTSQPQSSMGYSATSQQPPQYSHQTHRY
T1 sequence (P24863 whole entry partner): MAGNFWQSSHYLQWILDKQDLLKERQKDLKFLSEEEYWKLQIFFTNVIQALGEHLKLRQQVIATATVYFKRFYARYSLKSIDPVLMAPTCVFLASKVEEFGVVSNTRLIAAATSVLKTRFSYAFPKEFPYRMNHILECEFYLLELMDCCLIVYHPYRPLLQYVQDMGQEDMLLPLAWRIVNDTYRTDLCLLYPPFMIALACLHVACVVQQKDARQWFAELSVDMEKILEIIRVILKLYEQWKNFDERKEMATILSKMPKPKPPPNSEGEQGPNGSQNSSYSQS

In general, IC50 refers to the concentration needed to halve the response being measured. For the molecule `N[C@@H]1CCN(c2nc3c(Br)c(Br)c(Br)c4c3n2CCC4)C1` [Example 1AE], the inhibition at 1 µM turned out to be 97% on CDK8/CyclinC, 61% at CDK9/CyclinT and 44% at CDK2/CyclinE. Moreover, the half-inhibitory concentration (IC50) came to 0.3 µM with HCT116 cells and 1.1 µM in the assay with SW480 cells.

For the molecule `NCC1CN(c2nc3c(Br)c(Br)c(Br)c4c3n2CCC4)CCO1` (centres unmarked) [Example 1AF], the IC50 in the assay on HCT116 cells was determined as 1.3 µM; in the assay with SW480 cells, 1.8 µM.

In the case of `Cc1c(Br)c(Br)c2c3c1nc(N[C@H]1CCNC1)n3CCC2` [Example 1AL], the IC50 amounted to 5.3 µM in the assay with HCT116 cells and 1.8 µM in the assay with SW480 cells.

In the case of `COc1c(Br)c2c3c(nc(N4CCNCC4)n3CCC2)c1Br` [Example 1AN], the inhibition at 1 µM at CDK8/CyclinC amounted to 61%; at CDK9/CyclinT, 10%. The half-inhibitory concentration (IC50) in the assay on HCT116 cells is 2.4 µM.

Regarding `Cc1c(Br)c(Br)c2c3c1nc(N1CCC(N)CC1)n3CCC2` [Example 1AP], the inhibition at 1 µM at CDK8/CyclinC stood at 65%; at CDK9/CyclinT it was 15%.

For the molecule `CC1CCc2c(Br)c(Br)c(Br)c3nc(N4CCNCC4)n1c23` (centres unmarked) [Example 1AU], the inhibition at 1 µM on CDK8/CyclinC came to 90%; on CDK9/CyclinT it was 12%. The IC50 in the assay on HCT116 cells is 0.2 µM; in the assay with SW480 cells, 1.1 µM.

As to `Brc1c(Br)c2c3c(nc(N[C@H]4CCCNC4)n3CCC2)c1Br` [Example 1AW], the values for the inhibition at 1 µM at CDK8/CyclinC, at CDK9/CyclinT and on CDK2/CyclinE were 57%, 41% and 0%, respectively.

Take `Cc1c(Br)c(Br)c2c3c1nc(N1CCCNCC1)n3CCC2` [Example 1AZ]: on CDK8/CyclinC, the inhibition at 1 µM was determined as 61%. Besides, the IC50 with HCT116 cells worked out at 1.6 µM.

With `N[C@@H]1CCCC[C@H]1Nc1nc2c(Br)c(Br)c(Br)c3c2n1CCC3` [Example 1B], the half-maximal inhibitory concentration (IC50) in the assay with HCT116 cells was found to be 1.3 µM; with SW480 cells, 0.5 µM.

For `NCC1CCCN1c1nc2c(Br)c(Br)c(Br)c3c2n1CCC3` (centres unmarked) [Example 1H], the inhibition at 1 µM on CDK8/CyclinC came out at 67%; on CDK9/CyclinT it was 8%; on CDK2/CyclinE it was 0%.

For `NC1CCCN(c2nc3c(Br)c(Br)c(Br)c4c3n2CCC4)C1` (centres unmarked) [Example 1I], the IC50 with HCT116 cells was found to be 1.5 µM.

For `Brc1c(Br)c2c3c(nc(NC4CCNCC4)n3CCC2)c1Br` [Example 1J], the IC50 in the assay with HCT116 cells was 0.5 µM.

Take `Brc1cc2nc(N3CCNCC3)n3c2c(c1Br)CCC3` [Example 1N]: the inhibition at 1 µM on CDK8/CyclinC came to 49%. Besides, the IC50 in the assay on HCT116 cells was 4.3 µM.

Consider `Cc1c(Br)c(Br)c2c3c1nc(NCCN)n3CCC2` [Example 1O], for which the 50% inhibitory concentration (IC50) in the assay on HCT116 cells was 1.3 µM.

With `Cc1c(Br)c2c3c(nc(NCCN)n3CCC2)c1Br` [Example 1P], in the assay on HCT116 cells, the IC50 is 1.4 µM.

`Cc1c(Br)c(Br)c2nc(N3CCNCC3)n3c2c1CCC3` [Example 1S]: the figures for the inhibition at 1 µM at CDK8/CyclinC and on CDK9/CyclinT were 54% and 4%, respectively. The values for the IC50 with HCT116 cells and in the assay with SW480 cells were 1.7 µM and 2.5 µM, respectively.

Take `NCCNc1nc2c([N+](=O)[O-])c(Br)c(Br)c3c2n1CCC3` [Example 1U]: the IC50 with HCT116 cells worked out at 1.6 µM.

Turning to `O[C@@H]1CCN(c2nc3c(Br)c(Br)c(Br)c4c3n2CCC4)C1` [Example 3AC], the inhibition at 1 µM at CDK8/CyclinC was 94%; at CDK9/CyclinT, 26%; on CDK2/CyclinE it was 12%.

As for `Cc1c(Br)c(Br)c2c3c1nc(N1CCNC(C)C1)n3CCC2` (centres unmarked) [Example 3AH], the inhibition at 1 µM at CDK8/CyclinC turned out to be 76%; at CDK9/CyclinT, 0%; on CDK2/CyclinE it was 0%.

Turning to `Cc1c(Br)c(Br)c2c3c1nc(N1CCN(C)CC1)n3CCC2` [Example 3AK], the inhibition at 1 µM on CDK8/CyclinC was 75%; on CDK9/CyclinT, -9%; on CDK2/CyclinE it was 0%.

In the case of `CN(C)C1CCN(c2nc3c(Br)c(Br)c(Br)c4c3n2CCC4)C1` (centres unmarked) [Example 3AL], the values for the inhibition at 1 µM at CDK8/CyclinC and at CDK9/CyclinT were 76% and 18%, respectively.

Regarding `O[C@H]1CCN(c2nc3c(Br)c(Br)c(Br)c4c3n2CCC4)C1` [Example 3AN], the inhibition at 1 µM on CDK8/CyclinC was found to be 85%; at CDK9/CyclinT, 21%; on CDK2/CyclinE, 4%.

Turning to `OC1CCN(c2nc3c(I)c(Br)c(Br)c4c3n2CCC4)CC1` [Example 3AO], the inhibition at 1 µM at CDK8/CyclinC was 93%; at CDK9/CyclinT, 22%; at CDK2/CyclinE, 16%.

On to `CCN(CC)c1nc2c(C)c(Br)c(Br)c3c2n1CCC3` [Example 3AP], for which the figures for the inhibition at 1 µM on CDK8/CyclinC and at CDK9/CyclinT were 81% and 9%, respectively.

For the molecule `Cc1c(Br)c(Br)c2c3c1nc(N1CCSCC1)n3CCC2` [Example 3AR], the inhibition at 1 µM at CDK8/CyclinC was found to be 75%.

`Cc1c(Br)c(Br)c2c3c1nc(N1CCN[C@H](C)C1)n3CCC2` [Example 3AT]: the inhibition at 1 µM on CDK8/CyclinC came to 82%.

For `Cc1c(Br)c(Br)c2c3c1nc(N1CCOCC1)n3CCC2` [Example 3AU], the inhibition at 1 µM at CDK8/CyclinC was 76%.

`Brc1c(Br)c2c3c(nc(Nc4ccncc4)n3CCC2)c1Br` [Example 3B]: on CDK8/CyclinC, the inhibition at 1 µM came out at 45%.

Turning to `Brc1c(Br)c2c3c(nc(Nc4ccccc4)n3CCC2)c1Br` [Example 3C], the inhibition at 1 µM at CDK8/CyclinC turned out to be 59%.

Take `Brc1c(Br)c2c3c(nc(NC4CCCCC4)n3CCC2)c1Br` [Example 3E]: the figures for the inhibition at 1 µM on CDK8/CyclinC, on CDK9/CyclinT and at CDK2/CyclinE were 64%, 3% and 3%, respectively.

In the case of `OCCCNc1nc2c(Br)c(Br)c(Br)c3c2n1CCC3` [Example 3F], the inhibition at 1 µM at CDK8/CyclinC came out at 67%.

On to `Brc1c(Br)c2c3c(nc(N4CCOCC4)n3CCC2)c1Br` [Example 3G], for which, on CDK8/CyclinC, the inhibition at 1 µM turned out to be 80%.

With `CN(C)CCNc1nc2c(Br)c(Br)c(Br)c3c2n1CCC3` [Example 3K], the 50% inhibitory concentration (IC50) in the assay with HCT116 cells is 2.2 µM.

As for `Brc1c(Br)c2c3c(nc(NCCCN4CCCC4)n3CCC2)c1Br` [Example 3L], the inhibition at 1 µM on CDK8/CyclinC stood at 54%; on CDK9/CyclinT it was 6%.

Regarding `CC1(C)CN(c2nc3c(Br)c(Br)c(Br)c4c3n2CCC4)CCN1` [Example 3N], the inhibition at 1 µM is 58% on CDK8/CyclinC and 18% at CDK9/CyclinT.

On to `CC1CCCN1c1nc2c(I)c(Br)c(Br)c3c2n1CCC3` (centres unmarked) [Example 3S], for which the inhibition at 1 µM at CDK8/CyclinC came out at 89%; on CDK9/CyclinT it was 16%; on CDK2/CyclinE it was 7%.

Take `OCC1CCCN(c2nc3c(Br)c(Br)c(Br)c4c3n2CCC4)C1` (centres unmarked) [Example 3U]: the inhibition at 1 µM was determined as 92% at CDK8/CyclinC, 24% at CDK9/CyclinT and 9% on CDK2/CyclinE.

`CCN(CC)c1nc2c(I)c(Br)c(Br)c3c2n1CCC3` [Example 3X]: the inhibition at 1 µM stood at 92% at CDK8/CyclinC, 41% at CDK9/CyclinT and 9% on CDK2/CyclinE.

Consider `Nc1nc2c(I)c(Br)c(Br)c3c2n1CCC3` [Example 3Y], for which the figures for the inhibition at 1 µM on CDK8/CyclinC, at CDK9/CyclinT and at CDK2/CyclinE were 69%, 17% and 21%, respectively.

As for `COC1CCN(c2nc3c(Br)c(Br)c(Br)c4c3n2CCC4)CC1` [Example 4A, 7,8,9-tribromo-2-(4-methoxypiperidin-1-yl)-5,6-dihydro-4H-imidazo[4,5,1-ij]quinoline], the figures for the inhibition at 1 µM on CDK8/CyclinC, on CDK9/CyclinT and on CDK2/CyclinE were 75%, 0% and 8%, respectively.

Turning to `Cc1c(Br)c(Br)c2c3c1nc(C1CCN(C(C)C)CC1)n3CCC2` [Example 7D], the inhibition at 1 µM at CDK8/CyclinC turned out to be 66%.
